In ChEMBL document CHEMBL3621087, “Adamantane amine derivatives as dual acting NMDA receptor and voltage-gated calcium channel inhibitors for neuroprotection” (Medchemcomm, 2014):
Calls of active or inactive are those of the source. The rule behind the calls is not given here.

Tests used:
[1] = species on record: Mus musculus; assay: Inhibition of NMDA receptor in mouse synaptoneurosomes assessed as reduction of NMDA/glycine-induced calcium influx at 100 uM after 30 mins using Fura-2 AM by fluorescence assay relative to control
[2] = species on record: Mus musculus; assay: Inhibition of voltage-gated calcium channel in mouse synaptoneurosomes assessed as reduction of KCl-induced calcium influx at 100 uM after 30 mins using Fura-2 AM by fluorescence assay relative to control

SMILES	inhibition [1]	inhibition [2]
O=[N+]([O-])c1cccc(CNC23CC4CC(CC(C4)C2)C3)c1	36.6%	14.3%
c1ccc(CCNC23CC4CC(CC(C4)C2)C3)cc1	89.5%	42%
O=[N+]([O-])c1ccccc1CNC12CC3CC(CC(C3)C1)C2	60.6%	49.2%
O=[N+]([O-])c1ccc(CNC23CC4CC(CC(C4)C2)C3)cc1	74.8%	85.7%
c1ccc(CNC23OC4C5C6CC(C7C6C4C72)C53)cc1 (stereo not given)	22.2%	38.4%
NC12CC3CC(CC(C3)C1)C2	84.6%	2.76%
Nc1ccccc1CNC12CC3CC(CC(C3)C1)C2	31.3%	37.1%
COc1ccc(CNC23CC4CC(CC(C4)C2)C3)cc1	79.2%	71.2%
C[C@]12N[C@H](Cc3ccccc31)c1ccccc12	100%	inactive
Nc1ccc(CNC23CC4CC(CC(C4)C2)C3)cc1	50.4%	49.5%
COCCOC(=O)C1=C(C)NC(C)=C(C(=O)OC(C)C)C1c1cccc([N+](=O)[O-])c1 (stereo not given)	inactive	100%
COc1cccc(CNC23CC4CC(CC(C4)C2)C3)c1	70.2%	44.7%
CC12CC3CC(C)(C1)CC(N)(C3)C2	92.5%	5.2%
Nc1cccc(CNC23CC4CC(CC(C4)C2)C3)c1	48.3%	30%
c1ccc(CNC23CC4CC(CC(C4)C2)C3)cc1	66.7%	39.6%
